Data reported in paper PMC9490041, “Determinants of affinity, specificity, and phase separation in a supramodule from Post-synaptic density protein 95” (iScience, 2022).
Like-named read-outs stand apart in the source and are kept apart here. Ends that are not written are not given here.

Tests used:
Test in all cases: FP displacement (competition) of FITC-15 AA CRIPT by library peptide, IC50 and Ki
[1] = biological target: PSG G335A (PSD-95); details: for IC50: read-out: IC50 (µM), PSG G335A; for Ki: read-out: Ki (µM), PSG G335A
[2] = biological target: PSG G322A G335A (PSD-95); details: for IC50: read-out: IC50 (µM), PSG G322A G335A
[3] = biological target: PSG G322A (PSD-95); details: for IC50: read-out: IC50 (µM), PSG G322A; for Ki: read-out: Ki (µM), PSG G322A
[4] = FP displacement of FITC-15 AA CRIPT probe by PSD library peptide, protein PSG G335A
[5] = FP displacement of FITC-15 AA CRIPT probe by PSD library peptide, protein PSG G322A G335A
[6] = read-out: Ki (µM), PSG G322A G335A, FP displacement of FITC-15 AA CRIPT probe by PSD library peptide, protein PSG G322A G335A
[7] = FP displacement of FITC-15 AA CRIPT probe by acetylated PSD library peptide
[8] = FP displacement of FITC-15 AA CRIPT probe by acetylated PSD library peptide (P-13 to P0 plus extra N-terminal Y)
[9] = read-out: Ki (µM), PSG G322A G335A, FP displacement of FITC-15 AA CRIPT probe by acetylated PSD library peptide
[10] = FP displacement of FITC-15 AA CRIPT probe by PSD library peptide, protein PSG G322A

Row | Compound | IC50 [2, 5] | Ki [2, 6] | IC50 [3, 7] | Ki [3, 7] | IC50 [1, 7] | Ki [1, 7] | IC50 [2, 8] | Ki [2, 9] | IC50 [3, 10] | also measured
1 | CC[C@H](C)[C@H](NC(=O)[C@H](CCC(=O)O)NC(=O)[C@@H](NC(=O)[C@H](C)NC(=O)[C@@H](NC(=O)[C@@H](NC(=O)[C@H](CC(=O)O)NC(=O)[C@H](CCC(=O)O)NC(=O)[C@H](Cc1ccc(O)cc1)NC(=O)[C@@H]1CCCN1C(=O)[C@@H](NC(=O)[C@H](CC(=O)O)NC(=O)[C@H](C)NC(=O)CNC(=O)[C@H](Cc1ccc(O)cc1)NC(C)=O)[C@@H](C)CC)[C@@H](C)CC)[C@@H](C)CC)[C@@H](C)O)C(=O)O [LZTS1] | 1120 µM | 388 µM |  |  |  |  |  |  |  | IC50 [1, 4]: 648 µM; Ki [1, 4]: 231 µM
2 | CC(=O)N[C@@H](Cc1ccc(O)cc1)C(=O)N[C@@H](CC(C)C)C(=O)N[C@@H](Cc1c[nH]cn1)C(=O)NCC(=O)N[C@@H](Cc1c[nH]cn1)C(=O)N[C@@H](CCCNC(=N)N)C(=O)N[C@@H](Cc1ccc(O)cc1)C(=O)N[C@@H](CO)C(=O)N[C@@H](CO)C(=O)NCC(=O)N[C@@H](CO)C(=O)N[C@@H](CCCNC(=N)N)C(=O)N[C@@H](CO)C(=O)N[C@@H](CC(C)C)C(=O)N[C@H](C(=O)O)C(C)C [IQEC3] |  |  | 660 µM | 286 µM | 673 µM | 240 µM | 570 µM | 197 µM |  | 
3 | Ac-YQSGPFIWIPSKEKL [DLG2] |  |  | 1420 µM | 615 µM | 2120 µM | 758 µM | 734 µM | 254 µM |  | 
4 | CC(=O)N[C@@H](Cc1ccc(O)cc1)C(=O)N[C@@H](Cc1ccccc1)C(=O)N[C@H](C(=O)N[C@@H](Cc1ccc(O)cc1)C(=O)N[C@@H](Cc1c[nH]cn1)C(=O)N[C@H](C(=O)N[C@@H](CO)C(=O)N[C@@H](CC(=O)O)C(=O)NCC(=O)N[C@@H](CC(=O)O)C(=O)N[C@@H](C)C(=O)N[C@@H](CC(C)C)C(=O)N[C@@H](CC(C)C)C(=O)N[C@@H](CC(C)C)C(=O)N[C@@H](CC(C)C)C(=O)O)[C@@H](C)O)[C@@H](C)O [CX3C1] | 740 µM | 256 µM |  |  |  |  |  |  |  | 
5 | Ac-YERAANREEALEWEF [CUX2] |  | 351 µM |  |  |  |  |  |  | 701 µM | Ki [3, 10]: 304 µM
6 | CC(=O)N[C@@H](Cc1ccc(O)cc1)C(=O)N[C@@H](Cc1ccc(O)cc1)C(=O)N[C@@H](CCC(=O)O)C(=O)N[C@H](C(=O)N[C@@H](CO)C(=O)N[C@@H](Cc1c[nH]cn1)C(=O)N[C@@H](Cc1ccc(O)cc1)C(=O)N1CCC[C@H]1C(=O)N[C@@H](C)C(=O)N[C@@H](CO)C(=O)N1CCC[C@H]1C(=O)N[C@@H](CC(=O)O)C(=O)N[C@@H](CO)C(=O)N[C@@H](Cc1c[nH]c2ccccc12)C(=O)N[C@H](C(=O)O)C(C)C)[C@@H](C)O [CTND2] | 465 µM | 161 µM |  |  |  |  |  |  | 694 µM | Ki [3, 10]: 301 µM; IC50 [1, 4]: 1020 µM; Ki [1, 4]: 364 µM
7 | CC[C@H](C)[C@H](NC(=O)[C@H](CCCNC(=N)N)NC(=O)[C@H](CCCNC(=N)N)NC(=O)[C@H](CCC(N)=O)NC(=O)[C@H](CC(N)=O)NC(=O)[C@H](CC(C)C)NC(=O)CNC(=O)[C@H](CO)NC(=O)[C@H](Cc1ccc(O)cc1)NC(=O)[C@H](CC(C)C)NC(=O)[C@H](CC(=O)O)NC(=O)[C@H](CCCNC(=N)N)NC(=O)[C@H](CCC(N)=O)NC(=O)CNC(=O)[C@H](Cc1ccc(O)cc1)NC(C)=O)C(=O)O [CD3E] |  |  |  |  |  |  |  |  | 757 µM | Ki [3, 10]: 328 µM
8 | Ac-YEPPEPKKSRRSVLL [CDC42] | 1100 µM | 381 µM |  |  |  |  |  |  | 952 µM | IC50 [1, 4]: 1180 µM; Ki [1, 4]: 421 µM
9 | Ac-YDVVAVYPNAKVELV [PDLI4] |  |  | 651 µM | 282 µM | 1510 µM | 538 µM | 881 µM | 305 µM |  | 
10 | CC(=O)N[C@@H](Cc1ccc(O)cc1)C(=O)N[C@@H](C)C(=O)N1CCC[C@H]1C(=O)N[C@@H](C)C(=O)N[C@H](C(=O)N[C@@H](CO)C(=O)N1CCC[C@H]1C(=O)N1CCC[C@H]1C(=O)N[C@@H](CCC(=O)O)C(=O)N[C@@H](CCCNC(=N)N)C(=O)N[C@@H](C)C(=O)N[C@@H](CC(C)C)C(=O)N[C@@H](CO)C(=O)N[C@@H](CCCCN)C(=O)N[C@@H](CC(C)C)C(=O)O)[C@@H](C)O [TUTLB] |  |  | 1730 µM | 752 µM | 721 µM | 257 µM | 1810 µM | 625 µM |  | 
11 | Ac-YVMQDESFPASKIEL [MAP1B] |  |  |  |  |  |  |  |  | 914 µM | Ki [3, 10]: 396 µM
12 | CC(=O)N[C@@H](Cc1ccc(O)cc1)C(=O)N[C@@H](CC(=O)O)C(=O)N[C@@H](CCCCN)C(=O)N[C@@H](CCCNC(=N)N)C(=O)N[C@@H](CC(=O)O)C(=O)N[C@@H](CO)C(=O)N[C@@H](CCC(=O)O)C(=O)N[C@@H](CCC(=O)O)C(=O)N[C@@H](CCC(=O)O)C(=O)N[C@@H](CO)C(=O)N[C@@H](CCC(=O)O)C(=O)N[C@@H](CO)C(=O)N[C@H](C(=O)N[C@@H](C)C(=O)N[C@@H](CC(C)C)C(=O)O)[C@@H](C)O [RHG44] | 944 µM | 327 µM |  |  |  |  |  |  | 1210 µM | Ki [3, 10]: 526 µM
13 | Ac-YQETLFVGNDQVSEI [TM108] |  |  |  |  |  |  | 1070 µM | 370 µM |  | 
14 | CC(=O)N[C@@H](Cc1ccc(O)cc1)C(=O)N[C@H](C(=O)N[C@@H](CCC(=O)O)C(=O)N[C@@H](CO)C(=O)N[C@@H](CC(C)C)C(=O)N[C@@H](CO)C(=O)N[C@@H](CO)C(=O)N[C@@H](CCC(=O)O)C(=O)N[C@@H](CO)C(=O)N[C@H](C(=O)N[C@@H](C)C(=O)N[C@H](C(=O)N[C@@H](CO)C(=O)N1CCC[C@H]1C(=O)N[C@H](C(=O)O)C(C)C)[C@@H](C)O)[C@@H](C)O)C(C)C [TNR16] |  |  | 867 µM | 376 µM |  |  | 880 µM | 304 µM |  | 
15 | CC[C@H](C)[C@H](NC(=O)[C@H](CC(=O)O)NC(=O)[C@H](CCC(N)=O)NC(=O)CNC(=O)[C@@H](NC(=O)[C@H](CC(C)C)NC(=O)[C@@H]1CCCN1C(=O)[C@H](Cc1ccc(O)cc1)NC(C)=O)C(C)C)C(=O)N[C@H](C(=O)N[C@@H](CC(=O)O)C(=O)N[C@@H](CC(C)C)C(=O)N[C@@H](CCC(N)=O)C(=O)N[C@H](C(=O)N[C@@H](CCC(=O)O)C(=O)N[C@H](C(=O)O)C(C)C)[C@@H](C)O)[C@@H](C)CC [ADGRB1] |  |  | 258 µM | 112 µM | 245 µM | 87 µM | 112 µM |  |  | Ki ([2]; FP displacement of 5 nM FITC-15 AA CRIPT by non-labeled acetylated peptide, room temperature, Ki from IC50, PSG G322A G335A): 39 µM
16 | CC[C@H](C)[C@H](NC(=O)[C@H](Cc1ccccc1)NC(=O)[C@H](Cc1ccc(O)cc1)NC(=O)[C@@H]1CCCN1C(=O)[C@H](CCC(N)=O)NC(=O)[C@H](Cc1ccc(O)cc1)NC(C)=O)C(=O)N[C@H](C(=O)N[C@@H](CC(N)=O)C(=O)N[C@@H](CO)C(=O)N[C@@H](CCCCN)C(=O)N[C@H](C(=O)N[C@@H](CCC(=O)O)C(=O)N[C@H](C(=O)N[C@H](C(=O)N[C@H](C(=O)O)C(C)C)[C@@H](C)O)C(C)C)[C@@H](C)O)[C@@H](C)O [SHSA9] |  |  | 756 µM | 328 µM | 1130 µM | 404 µM | 994 µM | 344 µM |  | 
17 | CC[C@H](C)[C@H](NC(=O)[C@H](CO)NC(=O)[C@@H](NC(=O)[C@@H](NC(=O)[C@@H]1CCCN1C(=O)[C@H](CC(C)C)NC(=O)[C@H](C)NC(=O)[C@@H]1CCCN1C(=O)[C@H](Cc1ccc(O)cc1)NC(C)=O)[C@@H](C)O)C(C)C)C(=O)N[C@@H](CO)C(=O)N[C@@H](CO)C(=O)N[C@@H](CO)C(=O)N[C@@H](C)C(=O)N[C@@H](CCC(=O)O)C(=O)N[C@H](C(=O)O)C(C)C [DOC10] |  |  | 1460 µM | 634 µM | 2010 µM | 718 µM | 2020 µM | 698 µM |  | 
18 | Ac-YYETGSLSFAGDERI [SEZ6] | 1700 µM | 590 µM |  |  |  |  |  |  |  | 
19 | CSCC[C@H](NC(=O)[C@H](CC(N)=O)NC(=O)[C@H](CCCCN)NC(=O)[C@H](CC(C)C)NC(=O)[C@@H](NC(=O)[C@H](CC(=O)O)NC(=O)[C@H](Cc1ccc(O)cc1)NC(C)=O)C(C)C)C(=O)N[C@H](C(=O)N[C@@H](CC(=O)O)C(=O)N[C@@H](CCCCN)C(=O)N[C@@H](C)C(=O)N1CCC[C@H]1C(=O)N1CCC[C@H]1C(=O)NCC(=O)N[C@H](C(=O)O)C(C)C)[C@@H](C)O [CK2N1] |  |  | 824 µM | 357 µM |  |  | 940 µM | 325 µM |  | 
20 | Ac-YQEQNKVLWIPASPL [DLG5] |  |  | 1510 µM | 654 µM | 1020 µM | 365 µM | 2830 µM | 979 µM |  | 
21 | Ac-YEKAASREEPIEWEF [CUX1] | 1280 µM |  |  |  |  |  |  |  | 1560 µM | Ki [3, 10]: 679 µM; IC50 [1, 4]: 1360 µM; Ki [1, 4]: 485 µM
